In experiment [1] the target is HPK1 kinase (aal-346. Life Technologies) (Homo sapiens (Human), UniProt Q92918). Nature of the experiment: HPK Kinase Activity Assay at 1 mM ATP (TR-FRET). Particulars: HPK1 kinase 40 nM, 0.5 μM STK1 substrate, read-out: Enzymatic activity IC50. Type of experiment: biochemical. (In general: In TR-FRET formats the signal depends on donor and acceptor labels being close together.)

Experiment [2] relates to pSLP76(S376) level in Jurkat cell line. Nature of the experiment: Cellular pSLP76(S376) HTRF Assay. Type of experiment: cell-based. Particulars: Jurkat cells, 2 h compound treatment, stimulated with 0.05 μg/mL anti-human CD3 (OKT3) for 30 min.

A word on the IC50: it is the concentration that gives 50% inhibition.

HPK1 kinase (aal-346. Life Technologies), sequence (Q92918 1-346): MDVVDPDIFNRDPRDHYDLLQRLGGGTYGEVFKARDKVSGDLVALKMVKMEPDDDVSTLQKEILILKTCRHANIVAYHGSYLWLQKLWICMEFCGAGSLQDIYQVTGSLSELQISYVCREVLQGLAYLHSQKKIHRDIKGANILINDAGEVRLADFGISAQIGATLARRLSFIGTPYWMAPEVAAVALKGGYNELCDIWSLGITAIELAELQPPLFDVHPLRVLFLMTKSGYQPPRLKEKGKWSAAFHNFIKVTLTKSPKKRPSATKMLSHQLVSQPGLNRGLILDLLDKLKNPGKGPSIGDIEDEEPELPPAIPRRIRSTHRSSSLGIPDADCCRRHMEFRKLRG

Turning to `Cc1cc(-c2cnc(N)c(Oc3cnn(C4CCN(C)CC4)c3)n2)cc(C)c1C1COCC(=O)N1` (stereo not shown) [Example A35, 5-(4-(5-amino-6-((1-(1-methylpiperidin-4-yl)-1H-pyrazol-4-yl)oxy)pyrazin-2-yl)-2,6-dimethylphenyl)morpholin-3-one], the IC50 came out at 47 nM in experiment [1] and 123 nM in experiment [2] (Homo sapiens, Jurkat).

As to `CN1CCC(n2cc(Oc3nc(-c4cc(N5CCCC5=O)cc(C5(O)COC5)c4)cnc3N)cn2)CC1` [Example A91, 1-(3-(5-amino-6-((1-(1-methylpiperidin-4-yl)-1H-pyrazol-4-yl)oxy)pyrazin-2-yl)-5-(3-hydroxyoxetan-3-yl)phenyl)pyrrolidin-2-one], the IC50 is 11 nM in experiment [1] and 199 nM in experiment [2] (Homo sapiens, Jurkat).

As for `Cc1cc(-c2cnc(N)c(Oc3cnn(C4CCN(C)CC4)c3)n2)cc(C)c1CNC(=O)c1ccccc1` [Example A44, N-(4-(5-amino-6-((1-(1-methylpiperidin-4-yl)-1H-pyrazol-4-yl)oxy)pyrazin-2-yl)-2,6-dimethylbenzyl)benzamide], the IC50 in experiment [1] amounted to 9 nM; in experiment [2] (Homo sapiens, Jurkat), 61 nM.

Consider `Cc1cc(-c2cnc(N)c(Oc3cnn(C4CCN(C)CC4)c3)n2)cc(C)c1N1CCOCC1` [Example A66, 5-(3,5-dimethyl-4-morpholinophenyl)-3-((1-(1-methylpiperidin-4-yl)-1H-pyrazol-4-yl)oxy)pyrazin-2-amine], for which the IC50 in experiment [1] turned out to be 36 nM; in experiment [2] (Homo sapiens, Jurkat), 132 nM.

In the case of `Cc1cc(CCNS(C)(=O)=O)cc(-c2cnc(N)c(Oc3cnn(C4CCN(C)CC4)c3)n2)c1` [Example A12, N-(3-(5-amino-6-((1-(1-methylpiperidin-4-yl)-1H-pyrazol-4-yl)oxy)pyrazin-2-yl)-5-methylphenethyl)methanesulfonamide], the IC50 is 127 nM in experiment [1] and 119 nM in experiment [2] (Homo sapiens, Jurkat).

For `Cc1cc(-c2cnc(N)c(Oc3cnn(C4CCN(C)CC4)c3)n2)cc(C)c1C(=O)NCCN(C)C` [Example A1, 4-(5-amino-6-((1-(1-methylpiperidin-4-yl)-1H-pyrazol-4-yl)oxy)pyrazin-2-yl)-N-(2-(dimethylamino)ethyl)-2,6-dimethylbenzamide], the IC50 in experiment [1] was determined as 47 nM; in experiment [2] (Homo sapiens, Jurkat), 93 nM.

Turning to `Cc1cc(-c2cnc(N)c(Oc3cnn(C4CCN(C)CC4)c3)n2)cc(C)c1CNC(=O)NC1(C(F)(F)F)CC1` [Example A64, 1-(4-(5-amino-6-((1-(1-methylpiperidin-4-yl)-1H-pyrazol-4-yl)oxy)pyrazin-2-yl)-2,6-dimethylbenzyl)-3-(1-(trifluoromethyl)cyclopropyl)urea], the IC50 in experiment [1] was found to be 16 nM; in experiment [2] (Homo sapiens, Jurkat), 45 nM.

Take `CCNS(=O)(=O)c1cc(C)cc(-c2cnc(N)c(Oc3cnn(C4CCN(C)CC4)c3)n2)c1` [Example A15, 3-(5-amino-6-((1-(1-methylpiperidin-4-yl)-1H-pyrazol-4-yl)oxy)pyrazin-2-yl)-N-ethyl-5-methylbenzenesulfonamide]: the IC50 in experiment [1] turned out to be 83 nM; in experiment [2] (Homo sapiens, Jurkat) it was 157 nM.

As for `Cc1cc(-c2cnc(N)c(Oc3cnn(C4CCN(C)CC4)c3)n2)cc(C2(O)CCOC2)c1N1CC2(COC2)C1` (stereo not shown) [Example A83, 3-(5-(5-amino-6-((1-(1-methylpiperidin-4-yl)-1H-pyrazol-4-yl)oxy)pyrazin-2-yl)-3-methyl-2-(2-oxa-6-azaspiro[3.3]heptan-6-yl)phenyl)tetrahydrofuran-3-ol], the IC50 in experiment [1] worked out at 17 nM; in experiment [2] (Homo sapiens, Jurkat) it was 105 nM.

With `Cc1cc(-c2cnc(N)c(Oc3cnn(C4CCN(C)CC4)c3)n2)cc(C2(O)COC2)c1Cl` [Example A84, 3-(5-(5-amino-6-((1-(1-methylpiperidin-4-yl)-1H-pyrazol-4-yl)oxy)pyrazin-2-yl)-2-chloro-3-methylphenyl)oxetan-3-ol], the IC50 in experiment [1] is 58 nM; in experiment [2] (Homo sapiens, Jurkat), 83 nM.

On to `Cc1cc(-c2cnc(N)c(Oc3cnn(C4CCN(C)CC4)c3)n2)cc(C(C)(C)O)c1` [Example A52, 2-(3-(5-amino-6-((1-(1-methylpiperidin-4-yl)-1H-pyrazol-4-yl)oxy)pyrazin-2-yl)-5-methylphenyl)propan-2-ol], for which the IC50 in experiment [1] turned out to be 70 nM; in experiment [2] (Homo sapiens, Jurkat), 118 nM.

`CNS(=O)(=O)c1cc(-c2cnc(N)c(Oc3cnn(C4CCN(C)CC4)c3)n2)cc(N2CCCCC2)c1` [Example A41, 3-(5-amino-6-((1-(1-methylpiperidin-4-yl)-1H-pyrazol-4-yl)oxy)pyrazin-2-yl)-N-methyl-5-(piperidin-1-yl)benzenesulfonamide]: the IC50 in experiment [1] amounted to 11 nM; in experiment [2] (Homo sapiens, Jurkat), 101 nM.

On to `Cc1cc(-c2cnc(N)c(Oc3cnn(C4CCN(C)CC4)c3)n2)cc([C@@]2(O)CCOC2)c1` (single isomer, unassigned) [Example A74A], for which the IC50 in experiment [1] was 46 nM; in experiment [2], 85 nM.

As for `CONC(=O)c1c(C)cc(-c2cnc(N)c(Oc3cnn(C4CCN(C)CC4)c3)n2)cc1C` [Example A21, 4-(5-amino-6-((1-(1-methylpiperidin-4-yl)-1H-pyrazol-4-yl)oxy)pyrazin-2-yl)-N-methoxy-2,6-dimethylbenzamide], the IC50 in experiment [1] was found to be 104 nM; in experiment [2] (Homo sapiens, Jurkat), 188 nM.

As for `Cc1cc(-c2cnc(N)c(Oc3cnn(C4CCN(C)CC4)c3)n2)cc(C2(O)COC2)c1C` [Example A73, 3-(5-(5-amino-6-(1-(1-methylpiperidin-4-yl)-1H-pyrazol-4-yloxy)pyrazin-2-yl)-2,3-dimethylphenyl)oxetan-3-ol], the IC50 in experiment [1] came out at 11 nM; in experiment [2] (Homo sapiens, Jurkat) it was 59 nM.

Turning to `CNCc1cc(-c2cnc(N)c(Oc3cnn(C4CCN(C)CC4)c3)n2)cc(N2CCC[C@H]2C)n1` [Example B2, (R)-5-(2-((methylamino)methyl)-6-(2-methylpyrrolidin-1-yl)pyridin-4-yl)-3-((1-(1-methylpiperidin-4-yl)-1H-pyrazol-4-yl)oxy)pyrazin-2-amine], the IC50 in experiment [1] came to 12 nM; in experiment [2] (Homo sapiens, Jurkat), 121 nM.

As for `C[C@@H]1COCCN1c1cc(-c2cnc(N)c(Oc3cnn(C4CCN(C)CC4)c3)n2)cc(C2(O)CCCOC2)c1` (single isomer, unassigned) [Example A90B], the IC50 in experiment [1] was 7.1 nM; in experiment [2] (Homo sapiens, Jurkat) it was 100 nM.

`CNS(=O)(=O)c1cc(OC)cc(-c2cnc(N)c(Oc3cnn(C4CCN(C)CC4)c3)n2)c1` [Example A7, 3-(5-amino-6-((1-(1-methylpiperidin-4-yl)-1H-pyrazol-4-yl)oxy)pyrazin-2-yl)-5-methoxy-N-methylbenzenesulfonamide]: the IC50 turned out to be 20 nM in experiment [1] and 62 nM in experiment [2] (Homo sapiens, Jurkat).

For `Cc1cc(-c2cnc(N)c(Oc3cnn(C4CCN(C)CC4)c3)n2)cc(C(F)F)c1C(=O)NCCN(C)C` [Example A33, 4-(5-amino-6-((1-(1-methylpiperidin-4-yl)-1H-pyrazol-4-yl)oxy)pyrazin-2-yl)-2-(difluoromethyl)-N-(2-(dimethylamino)ethyl)-6-methylbenzamide], the IC50 in experiment [1] is 67 nM; in experiment [2] (Homo sapiens, Jurkat), 102 nM.

For `Cc1cc(-c2cnc(N)c(Oc3cnn(C4CCN(C)CC4)c3)n2)cc(C2(O)CCOC2)c1N1CCOCC1` (stereo not shown) [Example A96, 3-(5-(5-amino-6-((1-(1-methylpiperidin-4-yl)-1H-pyrazol-4-yl)oxy)pyrazin-2-yl)-3-methyl-2-morpholinophenyl)tetrahydrofuran-3-ol], the IC50 in experiment [1] is 36 nM; in experiment [2] (Homo sapiens, Jurkat) it was 117 nM.

Values taken from patent US20240317714A1, “3-[(1H-PYRAZOL-R-YL)OXY]PYRAZIN-2-AMINE COMPOUNDS AS HPK1 INHIBITOR AND USE THEREOF” (BeiGene, Ltd., priority 2020, published 2024).
